Experimental data published in paper PMC9303275, “Direct adenylation from 5′-OH-terminated oligonucleotides by a fusion enzyme containing Pfu RNA ligase and T4 polynucleotide kinase” (Nucleic Acids Research, 2022).

How the values were obtained:
Pfu RNA ligase (Pfu Rnl) = target: T1, Pfu RNA ligase (Pfu Rnl) (Pyrococcus furiosus, UniProt Q8U3V2); assay: oligonucleotide adenylation, denaturing urea-PAGE, SYBR Gold; format: biochemical
T1 construct: gene PF0353; full length, 379 aa, N-terminal 8xHis tag (not reported cut), codon optimised, pET28a, E. coli BL21(DE3), ~42 kDa, mainly homodimer
T1 sequence (Q8U3V2 1-379): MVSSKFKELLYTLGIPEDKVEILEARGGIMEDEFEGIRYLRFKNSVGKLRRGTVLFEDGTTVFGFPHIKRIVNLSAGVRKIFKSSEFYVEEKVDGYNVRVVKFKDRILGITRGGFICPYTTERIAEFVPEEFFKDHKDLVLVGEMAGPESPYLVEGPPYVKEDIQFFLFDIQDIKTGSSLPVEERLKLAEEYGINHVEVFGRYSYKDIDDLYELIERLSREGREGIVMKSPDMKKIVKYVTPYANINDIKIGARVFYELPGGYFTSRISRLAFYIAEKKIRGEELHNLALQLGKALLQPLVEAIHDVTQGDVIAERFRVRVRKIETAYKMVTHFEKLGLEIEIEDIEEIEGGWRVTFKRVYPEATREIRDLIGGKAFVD

Mth RNA ligase (Mth Rnl) = target: T2, Mth RNA ligase (Mth Rnl) (Methanothermobacter thermautotrophicus, UniProt O27289); assay: oligonucleotide adenylation, denaturing urea-PAGE; format: biochemical; settings: 5'-phosphorylated 55-nt ssDNA; commercial kit protocol
T2 construct: gene MTH_1221; commercial enzyme (New England Biolabs, 5' DNA adenylation kit)
T2 sequence (O27289 1-381): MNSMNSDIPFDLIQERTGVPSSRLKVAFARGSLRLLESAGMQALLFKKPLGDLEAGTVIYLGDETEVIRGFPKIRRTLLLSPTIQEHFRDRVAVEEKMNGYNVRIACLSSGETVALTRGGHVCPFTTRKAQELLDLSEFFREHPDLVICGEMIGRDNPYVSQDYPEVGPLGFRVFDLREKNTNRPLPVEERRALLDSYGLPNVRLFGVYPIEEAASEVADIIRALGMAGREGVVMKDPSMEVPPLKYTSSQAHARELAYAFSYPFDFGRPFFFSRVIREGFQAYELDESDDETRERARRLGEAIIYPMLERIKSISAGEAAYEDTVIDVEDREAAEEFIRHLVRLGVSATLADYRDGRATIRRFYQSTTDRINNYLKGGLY

[1] = target: the molecule itself; assay: SEC; gel filtration on HiLoad 26/600 Superdex 200 pg, 50 mM phosphate, 150 mM NaCl, pH 7.0, 2.6 ml/min; elution volumes compared with molecular weight standards; each protein loaded separately

## Nc1ncnc2c1ncn2[C@@H]1O[C@H](COP(=O)(O)OP(=O)(O)O)[C@@H](O)[C@H]1O [ADP]
Pfu RNA ligase (Pfu Rnl); 5'-phosphorylated 17-nt and 55-nt ssDNA, 5 mM MgCl2, 70 mM Tris-HCl pH 7.0, 80 °C, weak activity
  oligonucleotide adenylation, denaturing urea-PAGE, SYBR Gold: weak catalytic activity with ADP and almost no catalytic activity with AMP

## Nc1ncnc2c1ncn2[C@@H]1O[C@H](COP(=O)(O)OP(=O)(O)OP(=O)(O)O)[C@@H](O)[C@H]1O [ATP]
Pfu RNA ligase (Pfu Rnl); 5'-phosphorylated ssDNA, 5 mM MgCl2, 70 mM Tris-HCl pH 7.0, 5 mM DTT, 80 °C, 30 min
  oligonucleotide adenylation, denaturing urea-PAGE, SYBR Gold: Pfu Rnl showed the best activity with ATP as the adenosyl source
Mth RNA ligase (Mth Rnl)
  oligonucleotide adenylation, denaturing urea-PAGE: As expected, both enzymes achieved near complete conversion

B1: Pfu RNA ligase (enzyme, Pyrococcus furiosus, UniProt Q8U3V2 1-379, looked up)
chain: T1 sequence (Q8U3V2 1-379)
notes: Pfu RNA ligase (Pfu Rnl) of Pyrococcus furiosus, encoded by the PF0353 gene, 379 amino acids, full length; No tag removal is described; also called Pfu Rnl; Q8U3V2 protein; source: E. coli BL21(DE3), purified (HisTrap FF, HiTrap Heparin HP)
[1]
  stoichiometry N: 2
